IC50 data for 25 molecules are collected here from US11524966B1 (Valo Early Discovery, Inc., priority 2017, dated 2022).

SMILES strings stand for the structures.

The target in this assay is T1, USP28 (His-tagged USP28-FL-mammalian) (Homo sapiens, UniProt Q96RU2).
T1 construct: Expression of USP28 (1-1077)-TEV-6*His (pTT5 vector); made in house; host or cells: Expi293f cells (pTT5 vector)
T1 sequence (Q96RU2 1-1077): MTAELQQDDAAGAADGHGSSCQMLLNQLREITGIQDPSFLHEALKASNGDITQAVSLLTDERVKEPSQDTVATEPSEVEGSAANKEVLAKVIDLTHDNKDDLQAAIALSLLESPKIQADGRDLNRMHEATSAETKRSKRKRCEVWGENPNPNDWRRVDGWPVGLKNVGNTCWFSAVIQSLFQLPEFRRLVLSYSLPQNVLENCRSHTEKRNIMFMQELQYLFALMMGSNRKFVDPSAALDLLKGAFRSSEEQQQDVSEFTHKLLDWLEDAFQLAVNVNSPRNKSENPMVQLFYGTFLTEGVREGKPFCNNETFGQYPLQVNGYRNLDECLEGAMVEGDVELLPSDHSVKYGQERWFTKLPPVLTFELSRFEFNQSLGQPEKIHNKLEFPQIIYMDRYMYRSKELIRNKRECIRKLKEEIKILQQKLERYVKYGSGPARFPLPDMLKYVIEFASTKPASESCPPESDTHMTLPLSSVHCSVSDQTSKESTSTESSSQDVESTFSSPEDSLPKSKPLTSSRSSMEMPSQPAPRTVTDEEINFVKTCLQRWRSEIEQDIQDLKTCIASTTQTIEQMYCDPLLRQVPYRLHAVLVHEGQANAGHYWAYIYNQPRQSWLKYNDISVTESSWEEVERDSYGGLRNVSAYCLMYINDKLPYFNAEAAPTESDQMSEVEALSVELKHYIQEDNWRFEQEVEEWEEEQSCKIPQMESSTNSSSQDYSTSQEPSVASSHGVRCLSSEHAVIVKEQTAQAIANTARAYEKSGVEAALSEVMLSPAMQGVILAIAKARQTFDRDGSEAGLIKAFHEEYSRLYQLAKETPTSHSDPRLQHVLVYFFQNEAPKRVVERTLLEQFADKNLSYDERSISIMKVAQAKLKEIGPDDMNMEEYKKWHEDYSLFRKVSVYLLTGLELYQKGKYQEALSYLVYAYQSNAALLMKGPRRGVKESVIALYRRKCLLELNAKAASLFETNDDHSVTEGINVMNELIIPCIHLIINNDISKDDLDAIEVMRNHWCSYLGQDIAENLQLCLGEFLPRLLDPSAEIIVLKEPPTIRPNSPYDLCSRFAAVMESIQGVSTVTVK
The assay can be described thus: Ubiquitin-Rhodamine 110 Assay for USP28 Activity, Example A-1(a). The class given is biochemical. As to conditions: Ubiquitin-Rhodamine 110 assay, Example A-1(a); read-out: USP28 A-1(a) IC50 range. An outline of the steps:
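Full-length His-tagged human USP28 (1-1077, Expi293f-expressed), […], with 25 nM Ub-Rh110 (<<Km) in pH 8.0 Tris buffer with BME, BGG, Triton X-100. 10-point dilutions (25 μM-1.3 nM), 45 min at room temperature, citric acid stop, fluorescence 485/535 nm; IC50 by 4-parameter fit.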

In general, IC50 refers to the concentration at which inhibition is half-maximal. For the molecule `O=C(N[C@H]1COc2cc(N3CCNCC3)ccc2C1)c1cnc2c(c1)CC[C@H]2O` [Example 57, (R)-7-hydroxy-N-((R)-7-(piperazin-1-yl)chroman-3-yl)-6,7-dihydro-5H-cyclopenta[b]pyridine-3-carboxamide], the IC50 is over 2000 nM.
Consider `O=C(N[C@H]1COc2cc(N3CCNCC3)ccc2C1)c1cnc2c(c1)CC[C@@H]2O` [Example 58, (S)-7-hydroxy-N-((R )-7-(piperazin-1-yl)chroman-3-yl)-6,7-dihydro-5H-cyclopenta[b]pyridine-3-carboxamide], for which the 50% inhibitory concentration (IC50) was 200 to 2000 nM.
The same measure for `O=C(N[C@H]1COc2cc(N3CCNCC3)ccc2C1)c1cnc2c(ccn2Cc2ccccc2)c1` [Example 59, (R)-1-benzyl-N-(7-(piperazin-1-yl)chroman-3-yl)-1H-pyrrolo[2,3-b]pyridine-5-carboxamide]: 1 to 50 nM; for `Cc1cnc2c(N)c(C(=O)N[C@H]3COc4c(C#N)c(N5CCNCC5)cc(F)c4C3)sc2n1` [Example 60, (R)-7-amino-N-(8-cyano-5-fluoro-7-(piperazin-1-yl)chroman-3-yl)-3-methylthieno[2,3-b]pyrazine-6-carboxamide]: 50 to 200 nM.
`Cc1ccc2c(N)c(C(=O)N[C@H]3COc4cc(N5CCNCC5)c(F)c(F)c4C3)sc2n1` [Example 61, (R)-3-amino-N-(5,6-difluoro-7-(piperazin-1-yl)chroman-3-yl)-6-methylthieno[2,3-b]pyridine-2-carboxamide]: the 50% inhibitory concentration (IC50) is 1 to 50 nM.
The same measure for `Cc1ccc2c(N)c(C(=O)N[C@H]3COc4cc([C@H]5CCNC[C@H]5O)ccc4C3)sc2n1` [Example 62, 3-amino-N-((R)-7-((3S,4R)-3-hydroxypiperidin-4-yl)chroman-3-yl)-6-methylthieno[2,3-b]pyridine-2-carboxamide]: 1 to 50 nM; for `Cc1ccc2c(N)c(C(=O)N[C@H]3COc4cc([C@@H]5CCNC[C@@H]5O)ccc4C3)sc2n1` [Example 63, 3-amino-N-((R)-7-((3R,4S)-3-hydroxypiperidin-4-yl)chroman-3-yl)-6-methylthieno[2,3-b]pyridine-2-carboxamide]: 1 to 50 nM.
The figure for `Cc1ccc2c(N)c(C(=O)N[C@H]3COc4cc([C@H]5CCNC[C@@H]5O)ccc4C3)sc2n1` [Example 64, 3-amino-N-((R)-7-((3R,4R)-3-hydroxypiperidin-4-yl)chroman-3-yl)-6-methylthieno[2,3-b]pyridine-2-carboxamide] is 1 to 50 nM.
As to `Cc1ccc2c(N)c(C(=O)N[C@H]3COc4cc([C@@H]5CCNC[C@H]5O)ccc4C3)sc2n1` [Example 65, 3-amino-N-((R)-7-((3S,4S)-3-hydroxypiperidin-4-yl)chroman-3-yl)-6-methylthieno[2,3-b]pyridine-2-carboxamide], the concentration for half-maximal inhibition (IC50) fell in the range of 1 to 50 nM.
The same measure for `Cc1nc2sc(C(=O)N[C@H]3COc4cc(N5CCNCC5)c(F)c(F)c4C3)c(N)c2s1` [Example 66, (R)-6-amino-N-(5,6-difluoro-7-(piperazin-1-yl)chroman-3-yl)-2-methylthieno[2,3-d]thiazole-5-carboxamide]: 1 to 50 nM.
The same measure for `Cc1cnc2c(N)c(C(=O)N[C@H]3COc4cc(N5CCNCC5)c(C#N)c(F)c4C3)sc2n1` [Example 67, (R)-7-amino-N-(6-cyano-5-fluoro-7-(piperazin-1-yl)chroman-3-yl)-3-methylthieno[2,3-b]pyrazine-6-carboxamide]: 1 to 50 nM.
The figure for `Cc1ccc2c(N)c(C(=O)N[C@H]3COc4c(F)c(N5CCNCC5)cc(F)c4C3)oc2n1` [Example 68, (R)-3-amino-N-(5,8-difluoro-7-(piperazin-1-yl)chroman-3-yl)-6-methylfuro[2,3-b]pyridine-2-carboxamide] is 200 to 2000 nM.
For the molecule `Cc1ccc2c(N)c(C(=O)N[C@H]3COc4cc([C@H]5CCNCC5(F)F)ccc4C3)sc2n1` [Example 69, 3-amino-N-((R)-7-((R)-3,3-difluoropiperidin-4-yl)chroman-3-yl)-6-methylthieno[2,3-b]pyridine-2-carboxamide], the concentration for half-maximal inhibition (IC50) was 1 to 50 nM.
With `Cc1ccc2c(N)c(C(=O)N[C@H]3COc4cc([C@@H]5CCNCC5(F)F)ccc4C3)sc2n1` [Example 70, 3-amino-N-((R)-7-((S)-3,3-difluoropiperidin-4-yl)chroman-3-yl)-6-methylthieno[2,3-b]pyridine-2-carboxamide], the half-inhibitory concentration (IC50) is 1 to 50 nM.
Take `Cc1cnc2c(N)c(C(=O)N[C@H]3COc4cc(N5CCNCC5)ncc4C3)sc2n1` [Example 71, (R)-7-amino-3-methyl-N-(7-(piperazin-1-yl)-3,4-dihydro-2H-pyrano[3,2-c]pyridin-3-yl)thieno[2,3-b]pyrazine-6-carboxamide]: the half-inhibitory concentration (IC50) lay in the range of 50 to 200 nM.
The figure for `Cc1nc2sc(C(=O)N[C@H]3COc4cc(N5CCNCC5)ncc4C3)c(N)c2cc1F` [Example 72, (R)-3-amino-5-fluoro-6-methyl-N-(7-(piperazin-1-yl)-3,4-dihydro-2H-pyrano[3,2-c]pyridin-3-yl)thieno[2,3-b]pyridine-2-carboxamide] is 1 to 50 nM; for `C[C@H]1CCc2cc(C(=O)N[C@H]3COc4cc(N5CC6CCC(C5)N6)ccc4C3)cnc2N1` [Example 73, (7S)-N-((3R)-7-(3,8-diazabicyclo[3.2.1]octan-3-yl)chroman-3-yl)-7-methyl-5,6,7,8-tetrahydro-1,8-naphthyridine-3-carboxamide] it is over 2000 nM; for `C[C@@H]1CCc2cc(C(=O)N[C@H]3COc4cc(N5CC6CCC(C5)N6)ccc4C3)cnc2N1` [Example 74, (7R)-N-((3R)-7-(3,8-diazabicyclo[3.2.1]octan-3-yl)chroman-3-yl)-7-methyl-5,6,7,8-tetrahydro-1,8-naphthyridine-3-carboxamide] it is 50 to 200 nM.
Take `Cc1ccc2c(N)c(C(=O)N[C@H]3COc4cc(N5C[C@@H]6CC[C@H]5CN6)ncc4C3)sc2n1` [Example 75, N-((R)-7-((1S, 4S)-2 5-diazabicyclo[2.2.2]octan-2-yl)-3,4-dihydro-2H-pyrano[3,2-c]pyridin-3-yl)-3-amino-6-methylthieno[2,3-b]pyridine-2-carboxamide]: the IC50 lay in the range of 1 to 50 nM.
The same measure for `Cc1ccc2c(N)c(C(=O)N[C@H]3COc4cc(N5C[C@H]6CC[C@@H]5CN6)ncc4C3)sc2n1` [Example 76, N-((R)-7-((1 R,4R)-2,5-diazabicyclo[2.2.2]octan-2-yl)-3,4-dihydro-2H-pyrano[3,2-c]pyridin-3-yl)-3-amino-6-methylthieno[2,3-b]pyridine-2-carboxamide]: 1 to 50 nM.
The same measure for `Cc1cnc2c(N)c(C(=O)N[C@H]3COc4c(C#N)c(N5CC6CC(C5)N6)cc(F)c4C3)sc2n1` [Example 77, N-((3R)-7-(3,6-diazabicyclo[3.1.1]heptan-3-yl)-8-cyano-5-fluorochroman-3-yl)-7-amino-3-methylthieno[2,3-b]pyrazine-6-carboxamide]: 50 to 200 nM.
The same measure for `Cc1ccc2c(N)c(C(=O)N[C@H]3COc4c(F)c(N5CC6CNCC(C5)O6)cc(F)c4C3)sc2n1` [Example 78, N-((3R)-7-(9-oxa-3,7-diazabicyclo[3.3.1]nonan-3-yl)-5,8-difluorochroman-3-yl)-3-amino-6-methylthieno[2,3-b]pyridine-2-carboxamide]: 1 to 50 nM.
For the molecule `Cc1ccc2c(N)c(C(=O)N[C@H]3COc4cc(N5CC6CNCC(C5)O6)c(F)c(F)c4C3)sc2n1` [Example 79, N-((3R)-7-(9-oxa-3,7-diazabicyclo[3.3.1]nonan-3-yl)-5,6-difluorochroman-3-yl)-3-amino-6-methylthieno[2,3-b]pyridine-2-carboxamide], the 50% inhibitory concentration (IC50) fell in the range of 1 to 50 nM.
As for `Cc1ccc2c(N)c(C(=O)N[C@H]3COc4cc([C@H]5CCNC[C@@H]5F)ccc4C3)sc2n1` [Example 80, 3-amino-N-((R)-7-((3R,4R)-3-fluoropiperidin-4-yl)chroman-3-yl)-6-methylthieno[2,3-b]pyridine-2-carboxamide], the IC50 lay in the range of 1 to 50 nM.
The same measure for `Cc1ccc2c(N)c(C(=O)N[C@H]3COc4cc([C@@H]5CCNC[C@H]5F)ccc4C3)sc2n1` [Example 81, 3-amino-N-((R)-7-((3S,4S)-3-fluoropiperidin-4-yl)chroman-3-yl)-6-methylthieno[2,3-b]pyridine-2-carboxamide]: 1 to 50 nM.
